Laboratory results taken from PubChem BioAssay AID602176 (NMMLSC, 2012).
Calls of active or inactive are those of the source. No rule for the calls is given here.

Target: Botulinum neurotoxin type A (Clostridium botulinum (strain Hall / ATCC 3502 / NCTC 13319 / Type A)) (UniProt P0DPI1)
Experiment: Botulinum neurotoxin type A light chain protease inhibitors, multiplex microsphere cleavage, dose response confirmation (AID 602176)
Settings: multiplex microsphere protease substrate cleavage, flow cytometry

Sequence of Botulinum neurotoxin type A (Clostridium botulinum (strain Hall / ATCC 3502 / NCTC 13319 / Type A)) (P0DPI1 whole entry, looked up): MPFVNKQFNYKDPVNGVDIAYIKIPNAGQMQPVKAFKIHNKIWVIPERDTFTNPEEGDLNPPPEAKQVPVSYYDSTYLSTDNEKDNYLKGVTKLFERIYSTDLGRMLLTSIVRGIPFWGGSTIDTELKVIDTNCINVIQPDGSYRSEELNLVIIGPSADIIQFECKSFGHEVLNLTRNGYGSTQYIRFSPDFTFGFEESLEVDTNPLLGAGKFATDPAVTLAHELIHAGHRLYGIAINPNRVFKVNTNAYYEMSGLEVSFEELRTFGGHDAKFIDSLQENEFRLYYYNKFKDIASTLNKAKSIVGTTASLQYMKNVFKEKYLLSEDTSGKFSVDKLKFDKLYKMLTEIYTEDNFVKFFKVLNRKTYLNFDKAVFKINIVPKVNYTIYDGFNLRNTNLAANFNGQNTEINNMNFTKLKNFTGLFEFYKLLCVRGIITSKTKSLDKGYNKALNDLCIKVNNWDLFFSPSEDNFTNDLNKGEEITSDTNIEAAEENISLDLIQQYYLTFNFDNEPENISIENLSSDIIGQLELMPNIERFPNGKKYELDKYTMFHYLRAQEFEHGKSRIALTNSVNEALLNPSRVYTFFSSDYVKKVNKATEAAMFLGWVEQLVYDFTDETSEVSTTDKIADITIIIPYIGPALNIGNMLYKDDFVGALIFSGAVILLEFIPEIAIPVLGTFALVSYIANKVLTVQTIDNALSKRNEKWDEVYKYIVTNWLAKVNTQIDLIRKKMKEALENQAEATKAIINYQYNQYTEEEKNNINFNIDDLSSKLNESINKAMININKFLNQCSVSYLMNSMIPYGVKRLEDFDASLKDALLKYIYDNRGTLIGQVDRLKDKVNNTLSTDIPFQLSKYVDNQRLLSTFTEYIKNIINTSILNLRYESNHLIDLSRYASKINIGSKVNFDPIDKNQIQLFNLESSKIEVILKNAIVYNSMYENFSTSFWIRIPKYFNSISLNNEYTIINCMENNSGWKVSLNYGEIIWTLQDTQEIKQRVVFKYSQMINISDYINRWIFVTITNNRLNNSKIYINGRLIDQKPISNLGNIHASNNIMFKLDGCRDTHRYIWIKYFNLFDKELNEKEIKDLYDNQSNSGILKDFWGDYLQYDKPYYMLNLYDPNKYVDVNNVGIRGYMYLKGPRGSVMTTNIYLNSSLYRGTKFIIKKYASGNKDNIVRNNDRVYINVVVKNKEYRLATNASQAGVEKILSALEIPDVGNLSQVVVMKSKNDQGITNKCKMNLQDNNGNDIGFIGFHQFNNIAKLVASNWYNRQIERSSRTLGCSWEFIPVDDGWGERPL

`Oc1[nH]c(N=C2N=c3ccccc3=N2)c2ccccc12` was tested, and the EC50 was > 20 µM (inactive).
